Assay results published in patent US7595173B2, “Low-cost production of peptides” (Dow Global Technologies Inc., priority 2002, dated 2009).
Entries after “also recorded” stand apart in the source; their conditions may differ. Ends that are not written are not given here.

System: E. coli strain BL21 (DE3)
Experiment: Antimicrobial activity: dose-dependent inhibition of E. coli growth (standard growth inhibition assay)
Format: cell-based
Experimental: The antimicrobial activity of the cleaved peptides (same samples from Examples 5 and 6) was determined by measuring the dose-dependent inhibition of E. coli growth. The samples were tested for their ability to inhibit the growth of an overnight culture inoculated with E. coli strain BL21 (DE3). AMP samples were diluted serially into water in 96 well plates. Overnight cultures of E. coli BL21 (DE3) cells were diluted 1:50 into LB broth and 250 μl aliquots were transferred into 96-well plates. Each plate was incubated at 37° C. for one hour and then 50 μl of diluted peptide (or water) were added to each well. Each plate was incubated overnight at 37° C. and then the culture density was determined by measuring the apparent absorbance at 600 nm using a Spectromax Plus plate reader.

Sequence: PFAKKFAKKFKKFAKKFAKFAFAFGD [D2A21 with an additional proline on the N-terminus and a glycine-aspartate dipeptide on its C-terminus]
- antimicrobial activity as compared to the D2A21 core/parent peptide: equivalent antimicrobial activity; also recorded: did not adversely affect the activity
